Data on four molecules can be found in ChEMBL document CHEMBL1201862, “PubChem BioAssay data set” (2004).

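Growth conditions: 96-well plates. Treatment: test compound, 48 hours, 5 concentrations. Analysis: linear interpolation between bracketing concentrations; unreached endpoints set to highest concentration. Here, GI50 denotes the concentration required for 50% inhibition of growth.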 Active and inactive are the calls of the source. Cut-off read from the data, not from the text of the source: active = GI50 up to about 1.1 µM and inactive = higher.

Holding throughout (experiment): NCI-60 cell line screen, 48 h
For assay [1], the system named is M14.
For assay [2], the system named is COLO 205.
Assay [3] concerns NCI-H226.
Assay [4] has as its system UACC-257.
Assay [5] relates to NCI/ADR-RES.
In assay [6] the test system is 786-0.
Assay [7] has as its system SF-268.
For assay [8], the system named is HOP-92.
The test system of assay [9] is OVCAR-5.
Assay [10] has as its system CAKI-1.
In assay [11] the test system is HCC 2998.
For assay [12], the system named is RPMI-8226.
In assay [13] the test system is Malme-3M.
For assay [14], the system named is BT-549.
Assay [15] has as its system MOLT-4.
Assay [16] concerns NCI-H522.
Assay [17] deals with SK-MEL-2.
Assay [18] has as its system SNB-19.
Assay [19] has as its system U-251.
Assay [20] concerns SN12C.

On to `CC1=NC(=Cc2cc(Br)cc(Br)c2)C(=O)N1n1c(-c2ccccc2)nc2ccccc2c1=O`, for which the GI50 in [1], in assay [2], in assay [3], in [4], in assay [5] and in assay [6] was > 100 µM (inactive) throughout. Further, the GI50 in assay [7], in [8], in [9], in assay [10], in assay [11] and in assay [12] was > 100 µM (inactive) each time. Moreover, the GI50 in assay [13], in assay [14], in assay [15], in assay [16], in assay [17] and in assay [18] was > 100 µM (inactive) throughout. The GI50 in assay [19] and in assay [20] was > 100 µM (inactive) throughout.

Turning to `[O-][n+]1ccccc1Sc1nc(Sc2cccc[n+]2[O-])nc(Sc2cccc[n+]2[O-])n1`, the GI50 in [1] was 1.26 µM (inactive); in [2], 0.386 µM (active); in [3] it was 2.42 µM (inactive); in [4], 2.4 µM (inactive); in assay [5], 2.92 µM (inactive); in [6], 1.27 µM (inactive). Besides, the GI50 in assay [7] is 2.99 µM (inactive); in assay [8], 1.28 µM (inactive); in [9], 1.7 µM (inactive); in assay [10], 0.9 µM (active); in assay [11], 1.51 µM (inactive); in [12], 0.385 µM (active). Moreover, the GI50 is 1.95 µM (inactive) in [13]; 1.61 µM (inactive) in assay [14]; 0.189 µM (active) in [15]; 0.745 µM (active) in assay [16]; 1.8 µM (inactive) in [17]; 13 µM (inactive) in assay [18]. Also, the figures for the GI50 in [19] and in assay [20] were 1.69 µM (inactive) and 1.81 µM (inactive), respectively.

On to `C=CCCCCOC1C=CC(OC(C)=O)C(COC(C)=O)O1` (stereo not given), for which the GI50 in [1], in [2], in assay [3], in assay [4], in [5] and in assay [6] was > 100 µM (inactive) each time. Also, the GI50 in assay [7], in assay [8], in [9], in [10], in assay [11] and in assay [12] was > 100 µM (inactive) throughout. Besides, the GI50 in assay [13], in [14], in assay [15], in assay [16], in [17] and in [18] was > 100 µM (inactive) in each case. In addition, the GI50 in [19] and in assay [20] was > 100 µM (inactive) each time.

For the molecule `C[C@]12CC[C@H]3[C@@H](CC=C4C[C@@H](O)CC[C@@]43C)[C@@H]1CC[C@@H]2N(CCO)CCO`, the GI50 in assay [1] was 48.4 µM (inactive); in assay [2], 44.3 µM (inactive); in assay [3], > 100 µM (inactive); in assay [4] it was 52.6 µM (inactive); in assay [5], > 100 µM (inactive); in [6], 19.7 µM (inactive). Besides, the GI50 was 36 µM (inactive) in [7]; 64 µM (inactive) in assay [8]; 55.1 µM (inactive) in [9]; 45.3 µM (inactive) in assay [10]; 27 µM (inactive) in assay [11]; > 100 µM (inactive) in [12]. Also, the GI50 was 31 µM (inactive) in assay [13]; > 100 µM (inactive) in assay [14]; > 100 µM (inactive) in [15]; 20.4 µM (inactive) in assay [16]; 76.2 µM (inactive) in assay [17]; 68.1 µM (inactive) in assay [18]. Further, the GI50 is 59.8 µM (inactive) in assay [19] and 33 µM (inactive) in assay [20].
